Several values for one entry are separate records, joined by “and”; a condition that tells them apart may be missing. Equal values may be shown once.
How the values were obtained:
[1] = target: T1, Hsp104^A503V (Saccharomyces cerevisiae, UniProt P31539, A503V); assay: biochemical; type: biochemical, yeast
T1 construct: made in house; host or cells: E. coli BL21-DE3 RIL
Experimental: (§1) Luciferase reactivation was performed as described, [37]. To assemble aggregates, firefly luciferase (50 µM) in luciferase refolding buffer (LRB, 25 mM HEPES-KOH, 7.4, 150 mM KAOc, 10 mM MgAOc, 10 mM DTT) with 6 M urea was incubated at 30°C for 20 min. Luciferase was then rapidly diluted 100-fold into LRB, divided into 100 µL aliquots, snap frozen in liquid N2, and stored at −80°C. For reactivation assays, aggregated luciferase (50 nM) was incubated with Hsp104 (1 µM hexamer), plus 2.6 mM ATPγS, 2.6 mM ATP and an ATP regeneration system (1 mM creatine phosphate, 0.25 µM creatine kinase (Roche Applied Science)) for 90 minutes at 25°C. Luciferase assay system was purchased from Promega. Luciferase activity was assessed by luminescence measured on a Safire^2 microplate reader (Tecan, Männedorf, Switzerland). The half maximal inhibitory concentration (IC50) was calculating by fitting luciferase-refolding data at different Suramin concentrations with Prism (GraphPad Software, Inc., La Jolla, CA).
(§2) (A) Hsp104 variants (0.25 µM monomer) were incubated for 10 min with ATP (1 mM) and varying concentrations of Suramin. The amount of Pi produced was measured by absorbance at 635 nm. Absorbance values were normalized to the absorbance produced by each Hsp104 variant in the absence of inhibitor. Values represent mean ±S.D. (n = 6). (B) Urea-denatured firefly luciferase aggregates were incubated for 90 min at 25°C with Hsp104 variants (1 µM hexamer) plus 1∶1 mixtures of ATP and ATPγS (or ATP alone) and varying concentrations of Suramin. Luciferase reactivation was then determined and normalized to untreated disaggregase activity for each variant in the presence of ATPγS: ATP (or ATP alone). 1∶1 mixtures of ATP and ATPγS were used for Hsp104^WT and Hsp104^T317A, while ATP alone was used for Hsp104^A503V and Hsp104^N728A. Values represent mean ±S.D. (n = 6–12).

[2] = target: T2, Hsp104^N728A (Saccharomyces cerevisiae, UniProt P31539, N728A); assay: biochemical; type: biochemical, yeast; conditions: for Hsp104^N728A refolding activity: ATP alone
T2 construct: made in house; host or cells: E. coli BL21-DE3 RIL
Experimental: as §1, §2

[3] = target: T3, Hsp104^WT (Saccharomyces cerevisiae, UniProt P31539); assay: Manual ATPase assay, Hsp104^WT; type: biochemical, yeast; conditions: for Normalized ATPase Activity: Figure 2B
T3 construct: made in house; host or cells: E. coli BL21-DE3 RIL
Experimental: Wild-type or mutant Hsp104 (0.25 µM monomer) in ATPase buffer (20 mM HEPES-KOH pH 7.4, 20 mM NaCl and 10 mM MgCl2) was incubated for 60 or 10 min at 25°C in the presence of ATP (1 mM) as noted. ATPase activity was assessed by the release of inorganic phosphate determined by using a malachite green phosphate detection kit (Innova).

[4] = target: T4, Hsp104^T317A (Saccharomyces cerevisiae, UniProt P31539, T317A); assay: Luciferase reactivation, Hsp104^T317A; type: biochemical, yeast; conditions: ATP:ATPγS 1:1
T4 construct: made in house; host or cells: E. coli BL21-DE3 RIL
Experimental: as §1
as §2, with “Figure 7 Hsp104 variants respond differently to Suramin than Hsp104^WT. (A)” for “(A)”

[5] = target: T5, Hsp104 with Hsp70 and Hsp40 (Saccharomyces cerevisiae, UniProt P31539); assay: Luciferase reactivation with Hsp70, Hsp40 and Hsp104 plus ATP; type: biochemical; conditions: for Normalized Luciferase Refolding Activity: Figure 3D, 70/40/104 (Hsp70 1 µM, Hsp40 1 µM, ATP)
T5 construct: host or cells: E. coli BL21-DE3 RIL (Hsp104)
Experimental: as §1
(A) Urea-denatured firefly luciferase aggregates were incubated for 90 min at 25°C with Hsp104 (1 µM hexamer) plus 1∶1 mixtures of ATP and ATPγS and varying concentrations of GdmCl. Luciferase reactivation was then determined and converted to % WT disaggregase activity in the presence of ATPγS: ATP. Values represent mean ±S.D. (n = 3–6). (B) Reactions were performed as in (A) except varying concentrations of Suramin were used. Values represent mean ±S.D. (n = 6–10). (C) Half maximal inhibitory concentration (IC50) for Suramin-mediated inhibition of Hsp104. IC50 was calculating by fitting luciferase-refolding data at different Suramin concentrations. (D) Reactions were performed as in (A) except that 1∶1 mixtures of ATP and ATPγS were replaced with Hsp70 (1 µM) and Hsp40 (1 µM) plus ATP. The Hsp104 alone condition (yellow bars) was carried out with 1∶1 mixtures of ATP and ATPγS as in (A). Each condition is normalized to the refolding activity in each corresponding condition in the absence of inhibitor.

[6] = target: T6, Hsp104 (Saccharomyces cerevisiae, UniProt P31539); assay: Luciferase disaggregation/reactivation assay, Hsp104 with ATP:ATPγS; type: biochemical, yeast
T6 construct: made in house; host or cells: E. coli BL21-DE3 RIL
Experimental: as §1

T4 sequence (P31539 whole entry T317A): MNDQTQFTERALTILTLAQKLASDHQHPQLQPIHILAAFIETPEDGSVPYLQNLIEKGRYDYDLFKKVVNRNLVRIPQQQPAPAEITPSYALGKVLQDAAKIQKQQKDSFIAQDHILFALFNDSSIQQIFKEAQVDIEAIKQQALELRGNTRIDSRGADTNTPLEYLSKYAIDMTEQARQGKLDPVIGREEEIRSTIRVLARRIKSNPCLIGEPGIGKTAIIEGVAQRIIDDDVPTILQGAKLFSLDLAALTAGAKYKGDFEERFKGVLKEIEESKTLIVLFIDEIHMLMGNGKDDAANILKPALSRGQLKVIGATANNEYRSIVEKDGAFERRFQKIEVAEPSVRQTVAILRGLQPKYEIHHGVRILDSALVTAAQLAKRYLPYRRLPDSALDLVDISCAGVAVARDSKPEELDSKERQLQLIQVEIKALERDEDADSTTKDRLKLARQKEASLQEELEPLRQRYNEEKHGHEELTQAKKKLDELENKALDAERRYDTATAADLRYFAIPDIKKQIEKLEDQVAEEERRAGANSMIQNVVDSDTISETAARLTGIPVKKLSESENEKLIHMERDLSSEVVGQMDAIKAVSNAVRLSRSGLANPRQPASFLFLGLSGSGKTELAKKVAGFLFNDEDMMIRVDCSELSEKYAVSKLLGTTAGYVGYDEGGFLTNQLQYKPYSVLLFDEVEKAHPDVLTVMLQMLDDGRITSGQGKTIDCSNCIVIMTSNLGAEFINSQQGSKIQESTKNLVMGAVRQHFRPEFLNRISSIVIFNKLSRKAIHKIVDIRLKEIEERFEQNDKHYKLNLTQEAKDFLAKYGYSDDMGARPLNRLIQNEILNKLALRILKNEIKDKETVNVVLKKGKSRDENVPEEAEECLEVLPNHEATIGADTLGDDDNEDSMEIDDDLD
T5 sequence (P31539 whole entry): as the sequence (P31539 whole entry T317A) above, with A317T counted along it
T6 sequence (P31539 whole entry): as the sequence (P31539 whole entry T317A) above, with A317T counted along it
T3 sequence (P31539 whole entry): as the sequence (P31539 whole entry T317A) above, with A317T counted along it
T2 sequence (P31539 whole entry N728A): as the sequence (P31539 whole entry T317A) above, with A317T, N728A counted along it
T1 sequence (P31539 whole entry A503V): as the sequence (P31539 whole entry T317A) above, with A317T, A503V counted along it

## Cc1ccc(C(=O)Nc2ccc(S(=O)(=O)O)c3cc(S(=O)(=O)O)cc(S(=O)(=O)O)c23)cc1NC(=O)c1cccc(NC(=O)Nc2cccc(C(=O)Nc3cc(C(=O)Nc4ccc(S(=O)(=O)O)c5cc(S(=O)(=O)O)cc(S(=O)(=O)O)c45)ccc3C)c2)c1 [Suramin]
[1]
  IC50: ~0.61 µM
[1]; Suramin 1 µM, ATP alone
  Hsp104^A503V refolding activity: less than 50%
[2]
  IC50: ~92.4 µM
[2]; Suramin 1 µM
  Hsp104^N728A refolding activity: ~100%
[2]; Suramin 50 µM
  Hsp104^N728A refolding activity: ~36%
[3]; 10 min reaction, ATP 1 mM
  IC50: ~3.39 µM
[3]; 60 min, ATP 1 mM, varying concentrations, Figure 2A
  Effect on Hsp104 ATPase activity (Pi produced), manual assay: greatly diminished the amount of Pi produced in a concentration-dependent manner
[3]; Hsp104 WT
  Inhibitor concentration of maximal ATPase inhibition: 25 µM
[3]; Suramin 1 µM, 10 min, ATP 1 mM
  Normalized ATPase Activity: 1.08
[3]; Suramin 5 µM, 10 min, ATP 1 mM
  Normalized ATPase Activity: 0.62
[3]; Suramin 10 µM, 10 min, ATP 1 mM
  Normalized ATPase Activity: 0.37
[3]; Suramin 25 µM, 10 min, ATP 1 mM
  Normalized ATPase Activity: 0.27
[3]; Suramin 25 µM, 10 min, read-out: Hsp104^WT ATPase activity relative to uninhibited Hsp104
  activity at 25 µM: 30%
[3]; Suramin 50 µM, 10 min, ATP 1 mM
  Normalized ATPase Activity: 0.29
[3]; Suramin 100 µM, 10 min
  inhibition at 100 µM: > 60%
[3]; Suramin 100 µM, 10 min, ATP 1 mM
  Normalized ATPase Activity: 0.33
[3]; Suramin 100 µM, 10 min, read-out: Hsp104^WT ATPase activity relative to uninhibited protein
  activity at 100 µM: ~35%
[3]; Suramin 250 µM, 10 min, ATP 1 mM
  Normalized ATPase Activity: 0.37
[4]; Suramin 1 µM
  Hsp104^T317A refolding activity: approximately 75%
[4]; Suramin 50 µM
  Hsp104^T317A refolding activity: approximately 8%
[4]; based on refolding data
  IC50: ~20.5 µM
[5]; Suramin 25 µM
  Normalized Luciferase Refolding Activity: 0.12
[5]; Suramin 100 µM
  Normalized Luciferase Refolding Activity: 0.03
[5]; disaggregation reaction with Hsp70 and Hsp40
  Rescue of inhibition by Hsp70 and Hsp40: not rescued by inclusion of Hsp70 and Hsp40
[6]; Figure 3D, Hsp104 alone (104), ATP:ATPγS 1:1, Suramin 25 µM
  Normalized Luciferase Refolding Activity: 0.14
[6]; Figure 3D, Hsp104 alone (104), ATP:ATPγS 1:1, Suramin 100 µM
  Normalized Luciferase Refolding Activity: 0.00
[6]; Suramin 1 µM
  Hsp104^WT refolding activity: 100%
[6]; Suramin 1 µM, 90 min 25°C, ATP:ATPγS 1:1, Figure 3B
  Normalized Luciferase Refolding Activity: 0.99
[6]; Suramin 5 µM, 90 min 25°C, ATP:ATPγS 1:1, Figure 3B
  Normalized Luciferase Refolding Activity: 0.63
[6]; Suramin 10 µM, 90 min 25°C, ATP:ATPγS 1:1, Figure 3B
  Normalized Luciferase Refolding Activity: 0.50
[6]; Suramin 25 µM, 90 min 25°C, ATP:ATPγS 1:1, Figure 3B
  Normalized Luciferase Refolding Activity: 0.14
[6]; Suramin 50 µM
  Hsp104 refolding activity: practically inactive
[6]; Suramin 50 µM, 90 min 25°C, ATP:ATPγS 1:1, Figure 3B
  Normalized Luciferase Refolding Activity: 0.03
[6]; Suramin 100 µM
  Effect on Hsp104 refolding of denatured luciferase: completely ablated the ability of Hsp104 to refold denatured luciferase
[6]; Suramin 100 µM, 90 min 25°C, ATP:ATPγS 1:1, Figure 3B
  Normalized Luciferase Refolding Activity: 0.00
[6]; fit of luciferase-refolding data, ATP:ATPγS 1:1, read-out: IC50, Hsp104^WT luciferase refolding
  IC50: ~10.1 µM and 10.1 µM

— publication PMC4192545, “Suramin Inhibits Hsp104 ATPase and Disaggregase Activity” (PLoS ONE, 2014)
